Legend:
CYP1A2 = CYP1A2 (Homo sapiens, UniProt P05177); assay: in vitro; details: both, hepatocytes
Description: CYP1A2 activity was characterized by the formation of acetaminophen from phenacetin.

CYP2A6 = CYP2A6 (Homo sapiens, UniProt P11509); details: Tranylcypromine 3 μM
CYP2C19 = CYP2C19 (Homo sapiens, UniProt P33261); assay: in vitro; details: both, pooled cryopreserved human hepatocytes in suspension, probe S-mephenytoin (20 μM)
CYP2C9 [1] = target: T1, CYP2C9 (Homo sapiens, UniProt P11712); details: Sulfaphenazole 10 μM
CYP2C9 [2] = target: T1, CYP2C9; assay: in vitro; details: both, hepatocytes

Sequence of CYP2A6 (P11509 whole entry): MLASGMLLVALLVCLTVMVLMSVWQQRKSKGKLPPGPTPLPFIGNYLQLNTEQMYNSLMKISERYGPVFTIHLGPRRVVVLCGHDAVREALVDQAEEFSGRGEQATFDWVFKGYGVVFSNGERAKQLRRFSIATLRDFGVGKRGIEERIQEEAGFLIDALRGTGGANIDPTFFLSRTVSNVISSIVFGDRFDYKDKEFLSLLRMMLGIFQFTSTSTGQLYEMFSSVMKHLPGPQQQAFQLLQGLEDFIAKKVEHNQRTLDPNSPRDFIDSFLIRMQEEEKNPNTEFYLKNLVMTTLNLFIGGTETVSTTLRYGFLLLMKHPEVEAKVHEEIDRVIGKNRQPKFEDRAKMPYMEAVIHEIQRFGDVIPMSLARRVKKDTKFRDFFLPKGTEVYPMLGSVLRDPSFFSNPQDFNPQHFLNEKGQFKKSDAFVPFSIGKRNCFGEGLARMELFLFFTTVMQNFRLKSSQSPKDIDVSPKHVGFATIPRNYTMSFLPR
Sequence of CYP2C19 (P33261 whole entry): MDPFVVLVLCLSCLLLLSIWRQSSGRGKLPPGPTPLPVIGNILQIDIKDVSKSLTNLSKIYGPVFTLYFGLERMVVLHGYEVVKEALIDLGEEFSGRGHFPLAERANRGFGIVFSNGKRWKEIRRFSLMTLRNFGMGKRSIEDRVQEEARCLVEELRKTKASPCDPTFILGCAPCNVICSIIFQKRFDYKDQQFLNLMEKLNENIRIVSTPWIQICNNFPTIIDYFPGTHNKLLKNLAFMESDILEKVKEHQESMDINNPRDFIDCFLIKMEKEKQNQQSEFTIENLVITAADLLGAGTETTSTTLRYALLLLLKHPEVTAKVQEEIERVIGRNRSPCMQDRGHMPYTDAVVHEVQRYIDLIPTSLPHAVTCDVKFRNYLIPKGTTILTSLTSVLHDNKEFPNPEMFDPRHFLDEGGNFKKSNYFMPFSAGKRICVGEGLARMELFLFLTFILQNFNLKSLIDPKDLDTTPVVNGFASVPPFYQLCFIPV
Sequence of CYP1A2 (P05177 whole entry): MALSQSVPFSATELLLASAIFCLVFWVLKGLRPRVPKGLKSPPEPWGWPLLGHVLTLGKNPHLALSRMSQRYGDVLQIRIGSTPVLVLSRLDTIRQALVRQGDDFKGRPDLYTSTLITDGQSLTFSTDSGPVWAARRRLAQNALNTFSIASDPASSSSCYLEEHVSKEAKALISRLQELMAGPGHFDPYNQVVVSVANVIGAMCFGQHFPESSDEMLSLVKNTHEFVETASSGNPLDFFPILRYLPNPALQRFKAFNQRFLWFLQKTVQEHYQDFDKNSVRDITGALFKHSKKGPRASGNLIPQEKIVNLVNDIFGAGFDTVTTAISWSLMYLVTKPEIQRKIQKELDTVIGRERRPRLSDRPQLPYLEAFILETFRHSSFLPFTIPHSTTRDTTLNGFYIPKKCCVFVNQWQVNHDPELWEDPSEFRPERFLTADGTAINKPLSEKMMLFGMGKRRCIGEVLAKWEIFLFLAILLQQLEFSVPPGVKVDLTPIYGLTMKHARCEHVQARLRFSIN
T1 sequence (P11712 whole entry): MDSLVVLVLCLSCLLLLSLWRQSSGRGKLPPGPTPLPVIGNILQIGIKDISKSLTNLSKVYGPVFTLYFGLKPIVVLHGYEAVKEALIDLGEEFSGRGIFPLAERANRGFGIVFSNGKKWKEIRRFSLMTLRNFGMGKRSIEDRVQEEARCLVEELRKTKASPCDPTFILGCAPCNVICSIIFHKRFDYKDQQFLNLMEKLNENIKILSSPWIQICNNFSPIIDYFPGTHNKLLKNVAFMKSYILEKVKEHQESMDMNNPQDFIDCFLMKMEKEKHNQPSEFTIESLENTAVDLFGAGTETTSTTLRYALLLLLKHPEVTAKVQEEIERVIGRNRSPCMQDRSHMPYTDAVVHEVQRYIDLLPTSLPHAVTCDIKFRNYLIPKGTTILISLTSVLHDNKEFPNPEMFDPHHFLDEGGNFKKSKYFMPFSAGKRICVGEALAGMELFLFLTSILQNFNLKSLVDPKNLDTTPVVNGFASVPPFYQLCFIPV

For `Cc1nc2c([nH]1)c(=O)n(C)c(=O)n2Cc1ccco1` [Furafylline, furafylline], the activity at 60 min, 1 μM (CYP1A2) was 27.9% and the inhibition at 60 min, 1 μM (CYP1A2) was 72.1%.

For `N[C@@H]1C[C@H]1c1ccccc1` (racemic) [Tranylcypromine, tranylcypromine], the “CYP2A6 % Inhibition” value (CYP2A6) was 64.1% and the “CYP2A6 activity % VC” value (CYP2A6) was 35.9%.

With `COc1ccc2[nH]c([S+]([O-])Cc3ncc(C)c(OC)c3C)nc2c1` (centres unmarked) [Omeprazole, omeprazole] the activity at 60 min, 25 μM (CYP2C19) was 73.6% and the inhibition at 60 min, 25 μM (CYP2C19) was 26.4%.

For `Nc1ccc(S(=O)(=O)Nc2ccnn2-c2ccccc2)cc1` [Sulfaphenazole, sulfaphenazole], the “CYP2C9 % Inhibition” value (CYP2C9 [1]) was 95.0% and the activity at 60 min, 10 μM (CYP2C9 [2]) was 5.02%.
